Source: patent publication US6063814A, “Phorbol esters as anti-neoplastic and white blood cell elevating agents” (priority 1997, dated 2000)
Several values for one entry are separate records, joined by “and”; a condition that tells them apart may be missing. Identical values can stand only once.

Experiments:
HL-60 cells = experiment: TPA + low doses of Ara-C, HL-60 differentiation; format: cell-based, human
From the text: (2) TPA+Low Doses of Ara-C:

[1] = test system: skin and the mucous membrane; conditions: cited from earlier work
[2] = test system: human leukemia cell line HL-60; conditions: cited from earlier work
B16 tumor cells = experiment: Tumor growth inhibition in mice injected with B16 tumor cells; format: in vivo, C57 mice; conditions: statistically different from control
Procedure: Effect of TPA in Mice Injected with B16 Tumor Cells:
Four groups of C57 mice were used in the experiment. Each group contained 7 mice and one group was untreated. Each C57 mouse was injected with 0.2 ml of supernatant of a 1:6 w/v homogenate of B16 cells at the under-arm position. On the third day, each treatment group was given TPA i.p. at 50, 100 or 200 μg/kg/d for 8 days.

[3] = test system: leukemia (bone marrow myeloblast and promyelocyte); experiment: Clinical treatment of leukemia patients with TPA; format: in vivo, humans; conditions: for bone marrow suppression, infection or bleeding: during and after treatment; for Spleen below the rib cage after treatment: 3 cm before
Procedure: The results obtained upon treatment of patients with TPA as presented in tabular form and in subsequent examples.
In the subjects identified as (1) through (5) below, chronic myelocytic leukemia had progressed to acute myelocytic leukemia before treatment with TPA.
Subject No. (1), patient No. 28879. Blood profile before TPA treatment: Hb: 28 g/L; WBC: 1.0×10^9 /L, platelet: 135×10^9 /L. Bone marrow profile before TPA treatment: myeloblast+promyelocyte: 30%. TPA treatment: 1 mg/week (0.25 mg administered four times) for two weeks. Blood profile after treatment: Hb: 86 g/L; WBC: 2.8×10^9 /L, platelet: 283×10^9 /L. Bone marrow profile after TPA treatment: myeloblast+promyelocyte: 2.5%.
Subject No. (2), patient No. 29926. Diagnosis: chronic myelocytic leukemia became acute myelocytic leukemia before treatment. Blood profile before TPA treatment: Hb: 94 g/L; WBC: 9.8×10^9 /L, platelet: 63×10^9 /L. Spleen: 3 cm below the rib cage. Bone marrow profile before TPA treatment: myeloblast+promyelocyte: 36%. TPA treatment: 1 mg/week for 5 weeks. Blood profile after treatment: Hb: 104 g/L; WBC: 4.9×10^9 /L, platelet: 80×10^9 /L. Spleen: 0.5 cm below the rib cage. Bone marrow profile after TPA treatment: myeloblast+promyelocyte: 3%.
Subject No. (3), patient No. 18102. Diagnosis: chronic myelocytic leukemia became acute myelocytic leukemia before treatment. Blood profile before TPA treatment: Hb: 70 g/L; WBC: 27.5×10^9 /L, platelet: 21×10^9 /L. Bone marrow profile before TPA treatment: myeloblast+promyelocyte: 90%. TPA treatment: 1 mg/week for 7 weeks. Blood profile after treatment: Hb: 96 g/L; WBC: 22×10^9 /L, platelet: 70×10^9 /L. Bone marrow profile after TPA treatment: myeloblast+promyelocyte: 2%.
Subject No. (4), patient No. 21315. Diagnosis: chronic myelocytic leukemia became acute myelocytic leukemia before treatment. Blood profile before TPA treatment: Hb: 87 g/L; WBC: 19×10^9 /L, platelet: 150×10^9 /L. Bone marrow profile before TPA treatment: myeloblast+promyelocyte: 67.5%. TPA treatment: 1 mg/week for 7 weeks. Blood profile after treatment: Hb: 45 g/L; WBC: 53.5×10^9 /L, platelet: 210×10^9 /L. Bone marrow profile after TPA treatment: myeloblast+promyelocyte: 4.5%.
Subject No. (5), patient No. 23965. Diagnosis: chronic myelocytic leukemia progressed to acute myelocytic leukemia. Blood profile before TPA treatment: Hb: 84 g/L; WBC: 36.6×10^9 /L, platelet: 290×10^9 /L. Bone marrow profile before TPA treatment: myeloblast+promyelocyte: 27.5%. TPA treatment: 1 mg/week for 2 weeks. Blood profile after treatment: Hb: 84 g/L; WBC: 27.3×10^9 /L, platelet: 170×10^9 /L. Bone marrow profile after TPA treatment: myeloblast+promyelocyte: 1.5%.
All the above patients had received various regimens of chemotherapy prior to the TPA treatment, including hydroxyurea, busulfan, and Ara-C, etc. but none was effective at the start of TPA treatment. Before the administration of TPA, patients received injection of 6×10^5 units of vitamin D3 (VD3)/person for 2 days; after the TPA administration, patients received i.v. infusion of 40 mg of Ara-C/d×3. […] These patients have been in clinical remission for over 6 months.
Subject No. (6), person. Diagnosed as AML-M3. Symptoms began in January, 1995. Blood profile: Hb:60 g/L, WBC: 0.4×10^9 /L, platelet: 40×10^9 /L. Bone marrow profile: myeloblast+promyelocyte: 48%. The TPA treatment period was 1 mg/week for three weeks, and 6×10^5 units VD3 /d×3 were injected prior to the treatment. […] The patient has been in remission after treatment for at least 6 months.
Subject No. (7), person. Diagnosis: MDS-REAB accompanied by an increased number of monocytes. […] The patient started to receive a combination treatment of 1,25-(OH)2 VD3 +TPA+low dose Ara-C. TPA dosage: 0.25-0.5 mg (1 mg per week) for eleven weeks. […]

cell cultures = conditions: Chemsyn product brochure; cited from earlier work
[4] = subject 6, AML-M3, TPA 1 mg/week three weeks, VD3 prior
[5] = subject 7, MDS-REAB, 1,25-(OH)2 VD3+TPA+low dose Ara-C, eleven weeks
[6] = subject 7, combination with 1,25-(OH)2 VD3 and Ara-C
[7] = subject 7, combination with 1,25-(OH)2 VD3 and Ara-C, blood
[8] = subject 8, AML-M3, retinoic acid failed
[9] = subject 9, secondary aplastic anemia, TPA 0.25 mg×2
[10] = subject 10, CML, TPA 0.25 mg once
[11] = subject 10, CML, TPA 0.25 mg once, second day
[12] = subjects 1-5, VD3 before, Ara-C after TPA

CCCCCCCCCCCCCC(=O)O[C@@H]1[C@@H](C)[C@@]2(O)[C@@H](C=C(CO)C[C@]3(O)C(=O)C(C)=C[C@@H]23)[C@@H]2C(C)(C)[C@]12OC(C)=O [TPA, Phorbol 12-Myristate-13-Acetate]
HL-60 cell differentiation (HL-60 cells; TPA alone, low dose 20 ng/ml): weak cell differentiation-inducing agent | HL-60 cell differentiation (HL-60 cells; combination of TPA and Ara-C): induced the HL-60 cells to differentiate synergistically | harm on oral ingestion [1]: harmful if ingested orally | irritant to skin [1]: highly potent irritant to skin | differentiation to nondividing macrophage-like cells ([2]; Weinberg, Science 213:655-657, 1981): causes differentiation of cells of the human leukemia cell line HL-60 to nondividing macrophage-like cells | induction of differentiation ([2]; stable human promyelocytic leukemic cell line HL-60): induces differentiation | rate of inhibition of tumor growth (B16 tumor cells; i.p. 50 μg/kg/d for 8 days): 40.0% | rate of inhibition of tumor growth (B16 tumor cells; i.p. 100 μg/kg/d for 8 days): 59.4% | rate of inhibition of tumor growth (B16 tumor cells; i.p. 200 μg/kg/d for 8 days): 32.1% | Bone marrow myeloblast+promyelocyte after TPA treatment ([3]; CML progressed to AML, TPA 1 mg/week for 2-7 weeks, VD3 before, Ara-C after): 2.5% and 3% and 2% and 4.5% and 1.5% | duration of clinical remission ([3]; many of the patients, from first treatment): over six months | clinical remission ([3]; refractory leukemia patients): clinical remission was achieved in a relatively short time | bone marrow suppression, infection or bleeding ([3]; refractory leukemia patients): no bone marrow suppression, infection or bleeding | Spleen below the rib cage after treatment ([3]; subject 2, TPA 1 mg/week for 5 weeks): 0.5 cm | duration of remission ([3]; subject 6, AML-M3): at least 6 months | remission ([3]; subject 6, AML-M3): met the standard for AML-M3 remission | Bone marrow myeloblast+promyelocyte after first treatment period [3, 4]: 3% | Hb after first treatment period [3, 4]: 118 g/L | WBC after first treatment period [3, 4]: 4.1e+09 L⁻¹ | platelet after first treatment period [3, 4]: 8e+10 L⁻¹ | Hb after treatment [3, 5]: 42 g/L | WBC after treatment [3, 5]: 1.02e+10 L⁻¹ | platelet after treatment [3, 5]: 3.4e+10 L⁻¹ | Spleen below the rib cage after treatment [3, 5]: 0.5 cm | Bone marrow myeloblast after treatment [3, 6]: 4% | Bone marrow promyelocyte after treatment [3, 6]: 6% | Lymphocyte after treatment [3, 7]: 19% | Monocyte after treatment [3, 7]: 1% | Neutrophil after treatment [3, 7]: 80% | Promyelocytes in blood after treatment [3, 7]: not detected | WBC after TPA treatment [3, 8]: 2.2e+09 L⁻¹ | platelet after TPA treatment [3, 8]: 2.23e+11 L⁻¹ | Hb after TPA treatment [3, 9]: 32 g/L | platelet after TPA treatment [3, 9]: 5.7e+10 L⁻¹ | Hb after treatment [3, 10]: 96 g/L | WBC after treatment [3, 10]: 2e+09 L⁻¹ | platelet after treatment [3, 10]: 1.12e+11 L⁻¹ | myeloblast+promyelocyte [3, 11]: 4% | myelocyte [3, 11]: 5% | clinical remission in bone marrow parameters [3, 12]: all achieved clinical remission in bone marrow parameters in a short time | duration of clinical remission [3, 12]: over 6 months | bone marrow suppression, infection or bleeding ([3]; subjects 1-5): no bone marrow suppression, nor infection or bleeding | mitogenic activity (cell cultures): powerful mitogen in cell cultures
